Biological target: Glycogen synthase kinase-3 beta (Homo sapiens, UniProt P49841)
Experiment: GSK3beta kinase inhibitor potency, dose response, biochemical, luminescence, cell-free homogeneous, retest (AID 434954)

Sequence of Glycogen synthase kinase-3 beta (P49841 whole entry): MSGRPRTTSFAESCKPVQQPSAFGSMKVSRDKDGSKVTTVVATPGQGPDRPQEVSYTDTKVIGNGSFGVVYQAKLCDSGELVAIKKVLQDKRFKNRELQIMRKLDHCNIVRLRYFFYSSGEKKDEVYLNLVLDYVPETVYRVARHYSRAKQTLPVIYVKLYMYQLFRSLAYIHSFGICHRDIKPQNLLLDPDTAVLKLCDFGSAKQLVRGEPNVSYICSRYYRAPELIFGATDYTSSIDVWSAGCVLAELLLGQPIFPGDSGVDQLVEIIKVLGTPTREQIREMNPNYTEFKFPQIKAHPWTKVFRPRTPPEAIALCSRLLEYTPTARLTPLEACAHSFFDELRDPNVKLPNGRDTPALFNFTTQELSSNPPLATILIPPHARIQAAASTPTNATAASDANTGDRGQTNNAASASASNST

`Cc1cc(NC(=O)c2noc3c2CCc2ccccc2-3)n(-c2ccccc2)n1` [MLS000116423] gave an EC50 greater than 300 µM.
`COc1ccc(N2C(=O)C3CCCN3C2c2ccccc2F)cc1` (stereo unspecified) [MLS000117169] showed an EC50 greater than 300 µM.
For `CCN1CCN(C(=O)c2ccc3c(c2)N(Cc2ccc(F)cc2)C(=O)c2ccccc2[S+]3[O-])CC1` (stereo unspecified) [MLS000117749], the EC50 was greater than 300 µM.
For `Cc1nn(C)c(C)c1S(=O)(=O)N(CC(=O)Nc1nccs1)c1ccc(C(C)C)cc1` [MLS000118397], the EC50 was greater than 300 µM.
`CCOC(=O)c1ccc(NC(=O)CSc2nnc(C3CC3)n2CC)cc1` [MLS000121467] was tested, and the EC50 was greater than 300 µM.
`Oc1cc(-c2c[nH]c3ccccc23)c(O)n1-c1ccccc1` [MLS000121758] gave an EC50 greater than 300 µM.
For `O=C(/[O+]=N/[CH-]c1ccc(N2CCCCC2)c([N+](=O)[O-])c1)c1c(F)cccc1F` [MLS000326582], the EC50 was greater than 300 µM.
`O=C(/[O+]=N/[CH-]c1ccc(N2CCCCC2)c([N+](=O)[O-])c1)c1ccc(Cl)cc1Cl` [MLS000326612] showed an EC50 greater than 300 µM.
In the case of `O=C(Nc1ccnc(-c2cccnc2)n1)c1ccc(Cl)c(Cl)c1` [MLS000327684], the EC50 is reported as greater than 300 µM.
`O=[N+]([O-])c1cc(-c2nc(-c3ccncc3)no2)ccc1Cl` [MLS000331762] was tested, and the EC50 was greater than 300 µM.
Work on `CCC(C)Nc1nc(N)c([N+](=O)[O-])c(NCCO)n1` (stereo unspecified) [MLS000332774] yielded an EC50 of 14.7 µM.
Work on `COc1ccc(Nc2nc(N)c([N+](=O)[O-])c(NCc3ccccc3)n2)cc1` [MLS000332775] yielded an EC50 of 10.1 µM.
In the case of `Cc1cccc(Nc2nc(N)c([N+](=O)[O-])c(NCc3ccccc3)n2)c1` [MLS000332785], the EC50 is reported as 21.4 µM.
Compound `Nc1nc(NCc2ccccc2)nc(NCCO)c1[N+](=O)[O-]` [MLS000332798] has an EC50 of 71.9 µM.
For `Nc1nc(Nc2cccc(Cl)c2)nc(NCc2ccco2)c1[N+](=O)[O-]` [MLS000333252], the EC50 was 6.01 µM.
`Cc1ccc(Nc2nc(N)c([N+](=O)[O-])c(NCCO)n2)cc1` [MLS000333433] showed an EC50 of 79.7 µM.
Compound `Cc1ccccc1CSc1nnc([C@@H]2CCCN2)o1` [MLS000333752] has an EC50 greater than 300 µM.
`CCOc1cc(C(=O)OCC(=O)Nc2ccc(Cl)cn2)ccc1OCC(=O)N1CCOCC1` [MLS000334350] was tested, and the EC50 was 61.8 µM.
With `COc1ccc(-c2nn(-c3ccccc3)cc2CN=Nc2ccccn2)cc1` [MLS000336205] the EC50 was greater than 300 µM.
`O=C(COc1ccc2ccccc2c1)Nc1cccc2c1C(=O)NC2=O` [MLS000375387] showed an EC50 greater than 300 µM.
Work on `COc1ccc(-c2nn(-c3ccccc3)cc2CN=Nc2ccccn2)cc1OC` [MLS000388893] yielded an EC50 of 66.1 µM.
`COc1ccc(-c2nn(-c3ccccc3)cc2CN=Nc2ccc3ccccc3n2)cc1OC` [MLS000388895] showed an EC50 greater than 300 µM.
In the case of `O=C(COC(=O)C1CCN(/C=C/C(=O)C(F)(F)F)CC1)Nc1ccccc1` [MLS000390182], the EC50 is reported as greater than 300 µM.
In the case of `CCOC(=O)c1c(C)[nH]c(C(=O)CSc2nccc(C)n2)c1C` [MLS000391683], the EC50 is reported as greater than 300 µM.
`c1ccc(-c2nc(-c3ccco3)n3ccccc23)cc1` [MLS000392030] was tested, and the EC50 was greater than 300 µM.
`Cc1nn(-c2ccccc2)c(Cl)c1C(=O)NCc1cccs1` [MLS000394567] was tested, and the EC50 was greater than 300 µM.
`O=C(COC(=O)C1CCN(S(=O)(=O)c2ccccc2)CC1)NC(=O)c1ccc(OC(F)F)cc1` [MLS000394677] was tested, and the EC50 was greater than 300 µM.
In the case of `Cc1ccc(NS(=O)(=O)c2cccc(C(=O)NN=Cc3c(C)nn(-c4ccccc4)c3N3CCCC3)c2)c(C)c1` [MLS000394744], the EC50 is reported as greater than 300 µM.
`CCN(c1ccccc1)S(=O)(=O)c1cc(NC(=O)Nc2ccccc2C#N)ccc1Cl` [MLS000395038] gave an EC50 greater than 300 µM.
Compound `CC(C)N1CCc2c(sc(NC(=O)CCc3ccccc3)c2C(N)=O)C1` [MLS000419104] has an EC50 greater than 300 µM.
`Cc1ccccc1CN=Nc1ncnc2nc[nH]c12` [MLS000419110] gave an EC50 of 17.2 µM.
For `c1csc(CN=Nc2ncnc3nc[nH]c23)c1` [MLS000419130], the EC50 was 19.7 µM.
With `Cc1ccc(CN=Nc2ncnc3nc[nH]c23)cc1` [MLS000419179] the EC50 was 30.1 µM.
With `Clc1ccc(CN=Nc2ncnc3nc[nH]c23)cc1` [MLS000419189] the EC50 was 20.4 µM.
`CCc1ccc(CN=Nc2ncnc3nc[nH]c23)cc1` [MLS000419199] showed an EC50 of 26.6 µM.
`CC(=O)N1CCc2c(sc(NC(=O)CN3C(=O)c4ccccc4C3=O)c2C(N)=O)C1` [MLS000419451] showed an EC50 of 19.5 µM.
`Nc1ccc(O)c2c(=O)cc(-c3ccccc3Cl)oc12` [MLS000518334] gave an EC50 of 21.5 µM.
Compound `O=c1cc(-c2ccccc2Cl)oc2c([N+](=O)[O-])c(O)cc(O)c12` [MLS000518336] has an EC50 of 2.58 µM.
In the case of `O=c1cc(-c2ccccc2Cl)oc2c(NS(=O)(=O)c3cccs3)ccc(O)c12` [MLS000518499], the EC50 is reported as greater than 300 µM.
`COc1ccccc1-c1cc(=O)c2c(O)ccc([N+](=O)[O-])c2o1` [MLS000518626] gave an EC50 greater than 300 µM.
With `Cc1ccccc1C(=O)Nc1ccc(O)c2c(=O)cc(-c3ccccc3Cl)oc12` [MLS000518806] the EC50 was greater than 300 µM.
Work on `COc1cccc(C2c3cc4c(cc3N=C3CC(C)(C)CC(=O)C32)OCO4)c1` (stereo unspecified) [MLS000522404] yielded an EC50 greater than 300 µM.
In the case of `Cc1ccc(N2CSC3=C(C#N)C(c4cccs4)CC(=O)N3C2)cc1` (stereo unspecified) [MLS000522486], the EC50 is reported as greater than 300 µM.
In the case of `O=C(NCCCN1CCCC1=O)c1ccc2c(c1)NC(=O)c1ccccc1S2` [MLS000522698], the EC50 is reported as greater than 300 µM.
`COc1ccc(Nc2nc(N)nc(CSc3nnc(C)s3)n2)cc1` [MLS000527270] gave an EC50 of 82 µM.
`CC1(C)CC(=O)C2C(=Nc3cc4c(cc3C2c2ccc(F)cc2)OCO4)C1` (stereo unspecified) [MLS000528763] showed an EC50 greater than 300 µM.
`CC1=Nc2nnnn2C(c2sccc2C)C1C(N)=O` (stereo unspecified) [MLS000528936] gave an EC50 greater than 300 µM.
For `CCOc1ccc2c(c1)-c1c(ssc1=S)C(C)(C)N2C` [MLS000529181], the EC50 was greater than 300 µM.
Compound `COc1ccc(-c2nn(-c3ccccc3)cc2CO)cc1` [MLS000534260] has an EC50 greater than 300 µM.
`Cc1ccc(-n2c(N)c(C(=O)NCc3cccnc3)sc2=S)cc1` [MLS000535145] gave an EC50 greater than 300 µM.
`COC(=O)CSc1ncnc2c1sc1nc(N3CCOCC3)c3c(c12)CCCC3` [MLS000535174] gave an EC50 greater than 300 µM.
With `COCCn1c(SCC(=O)Nc2ccc(Cl)c(S(=O)(=O)N(C)C)c2)nc2ccccc21` [MLS000536225] the EC50 was greater than 300 µM.
In the case of `COc1cc(CN=Nc2ccc([N+](=O)[O-])cc2)ccc1OCC(=O)Nc1ccc(C)c(C)c1` [MLS000537060], the EC50 is reported as greater than 300 µM.
Work on `CCCN(CCC)c1nc(N)nc(-c2cc(Cl)ccc2OC)n1` [MLS000538209] yielded an EC50 greater than 300 µM.
Work on `CCCNc1nc(N)nc(-c2cc(Cl)ccc2OC)n1` [MLS000538216] yielded an EC50 greater than 300 µM.
`CCNc1nc(N)nc(-c2cc(Cl)ccc2OC)n1` [MLS000538218] showed an EC50 greater than 300 µM.
`CSc1nsc(CC=Nc2ccc(Cl)cc2)c1C#N` [MLS000539457] gave an EC50 greater than 300 µM.
`CNc1nc(-c2ccccc2)nc(-c2ccccc2)c1C#N` [MLS000539511] showed an EC50 greater than 300 µM.
Compound `COc1cc(C=NNC(=O)c2sc(N)c(C#N)c2C)ccc1O` [MLS000540774] has an EC50 of 0.436 µM.
`COc1ccc(C(=O)ON=C(C)c2cccs2)cc1` [MLS000544771] gave an EC50 of 13.9 µM.
Work on `O=C(Nc1ccsc1C(=O)NC1CC1)c1ccccc1` [MLS000546913] yielded an EC50 of 9.98 µM.
`O=C(CN(Cc1cccs1)C(=O)CCC(=O)Nc1nccs1)NCc1ccccc1` [MLS000551058] gave an EC50 greater than 300 µM.
For `Cc1c(O)c(CN2CCCCC2)cc2c1oc(=O)c1ccccc12` [MLS000551544], the EC50 was greater than 300 µM.
For `Cc1ccc2c(c1)cc1c(O)nncn12` [MLS000551564], the EC50 was greater than 300 µM.
`CCN(CC)Cc1c(O)ccc2c(=O)c(-c3ccc4c(c3)OCCO4)coc12` [MLS000552107] was tested, and the EC50 was greater than 300 µM.
`Cn1nnc2sc3c(c2c1=O)CCCC3` [MLS000557299] gave an EC50 of 23.3 µM.
`CN1CCc2c(sc3c2c(=O)n(-c2ccccc2)c2n[nH]c(=S)n32)C1` [MLS000558136] showed an EC50 of 21.7 µM.
`Oc1cc(SC(=Nc2ccccc2)Nc2ccccc2)c(O)n1-c1cccc2ccccc12` [MLS000558765] showed an EC50 greater than 300 µM.
`COc1ccc(-c2nn(-c3ccccc3)cc2C=Nn2c(O)csc2=S)cc1` [MLS000558856] gave an EC50 greater than 300 µM.
In the case of `CCOC(=O)c1ccc2c(c1)[n+](CC)c(/C=C/N(C)c1ccccc1)n2CC` [MLS000561766], the EC50 is reported as greater than 300 µM.
With `COc1ccc(-c2c(C)oc3ccc(C)cc23)cc1` [MLS000562305] the EC50 was greater than 300 µM.
In the case of `COC(=O)C1=C(C)N(CCCC(=O)O)C(=O)NC1c1ccc([N+](=O)[O-])cc1` (stereo unspecified) [MLS000562939], the EC50 is reported as greater than 300 µM.
For `Cc1noc2c1C(c1ccc(N(C)C)cc1)C1C(=O)CC(C)(C)CC1=N2` (stereo unspecified) [MLS000565136], the EC50 was greater than 300 µM.
With `Cc1ccc2c(c1)C1CN(C)CCC1N2C(=O)Nc1cccc(Cl)c1` (stereo unspecified) [MLS000565326] the EC50 was greater than 300 µM.
In the case of `Cc1cc(C(=O)OCCN2C(=O)c3ccccc3C2=O)c2ccccc2n1` [MLS000565821], the EC50 is reported as greater than 300 µM.
Compound `COc1ccc(CC(=O)OCC(=O)Nc2ccc(Cl)cn2)cc1` [MLS000566076] has an EC50 of 107 µM.
Work on `Cc1cc(NC(=O)CSc2nnc(C3CC3)n2Cc2ccccc2)no1` [MLS000566701] yielded an EC50 greater than 300 µM.
Compound `COc1cccc(N(C(=O)C[S+]([O-])CC(=O)Nc2ccc(F)cc2)C(C(=O)NC2CCCCC2)c2cccs2)c1` (stereo unspecified) [MLS000566826] has an EC50 greater than 300 µM.
`COCCn1c(SCC(=O)Nc2ccc(S(=O)(=O)N(C)C)cc2)nc2ccccc21` [MLS000567111] gave an EC50 greater than 300 µM.
Work on `Cc1ccc(C2c3c(C)noc3N=C3CC(C)(C)CC(=O)C32)cc1` (stereo unspecified) [MLS000568466] yielded an EC50 greater than 300 µM.
Work on `O=C(Cc1sc(N2CCCCC2)nc1O)Nc1cccc(C(F)(F)F)c1` [MLS000570409] yielded an EC50 greater than 300 µM.
Compound `O=c1[nH]c(N=NCc2ccccc2)nc2ccccc12` [MLS000571403] has an EC50 greater than 300 µM.
`Cc1ccc2c(c1)=C(NN1C(=O)c3ccccc3C1=O)C(=O)N=2` [MLS000573597] showed an EC50 greater than 300 µM.
`CCOc1ccc(N2C(=O)S/C(=C\c3cccn3C)C2=O)cc1` [MLS000580380] showed an EC50 greater than 300 µM.
Work on `CCOc1ccccc1NC(=O)N1CCC2(CC1)OCCO2` [MLS000581263] yielded an EC50 greater than 300 µM.
Compound `CN(CCO)c1cc(N2CCC3(CC2)OCCO3)c2nonc2c1[N+](=O)[O-]` [MLS000584853] has an EC50 of 68 µM.
Compound `NS(=O)(=O)c1ccc(CCNC(=O)CSc2nc3ccsc3c(=O)n2C2CC2)cc1` [MLS000586542] has an EC50 greater than 300 µM.
`COCCNc1nc(N)c([N+](=O)[O-])c(NCC2CCCO2)n1` (stereo unspecified) [MLS000588049] gave an EC50 of 13 µM.
`COc1ccc2oc3cc(C)[n+]([O-])c(-c4ccc(Cl)cc4)c3c2c1` [MLS000588178] showed an EC50 of 12.7 µM.
Compound `COc1ccc2oc3cc(C)[n+]([O-])c(-c4ccc(Br)cc4)c3c2c1` [MLS000588179] has an EC50 greater than 300 µM.
Work on `O=C1N=C(NCc2ccccc2)SC1=Cc1ccccc1` [MLS000589841] yielded an EC50 greater than 300 µM.
